Several values for one entry are separate records, joined by “and”; a condition that tells them apart may be missing. Equal entries are not always repeated.
System: 922993-354-T-J3-PDC complex spheroids, viability
Experiment: Anticancer human tumor 922993-354-T-J3-PDC patient-derived endometrial carcinoma cell line growth inhibition [GQUAD]
Conditions: for viability, T/C: stronger effect = lower value
Source text: DNA G-quadruplex Stabilizer Agents in Combinations in Complex Spheroids
A high-throughput screen of multi-cell type tumor spheroids was designed to identify active combinations of DNA G-quadruplex stabilizer agents and targeted small molecules. Complex spheroids include a stromal component modeled by human endothelial cells (HUVEC) and fibroblasts modeled by human mesenchymal stem cells (MSCs). The concentration ranges selected for each drug and investigational agent were based upon clinically achievable concentrations if the clinical Cmax of the agent was known.
Compounds. The drugs and investigational agents: pidnarulex (CX-5461; NSC782164), APTO-253 (NSC789042), BRACO-19 (NSC847499), peposertib (NSC802822), ceralasertib (NSC780249), elimusertib (NSC800525), camonsertib (NSC841442), AZD-1390 (NSC803789), olaparib (NSC753686), talazoparib (NSC767125), ART-558 (NSC835418), sotorasib (NSC818433), MRTX-1133 (NSC836407), SN-38 (NSC673596), topotecan (NSC609699), etoposide (NSC141540), doxorubicin (NSC123127), gemcitabine (NSC613327), 5-fluorouracil (NSC19893), paclitaxel (NSC125973), vemurafenib (NSC761431), panobinostat (NSC761190), R-306465 (JNJ-16241199; NSC773264), adavosertib (NSC754352), TP-3654 (NSC805149), carboplatin (NSC241240), KSQ-4279 (NSC840948), and staurosporine (NSC755774) were obtained from the National Cancer Institute (NCI) Developmental Therapeutics Program Chemical Repository (34). The FDA-approved anticancer drug set is available from the NCI Developmental Therapeutics Program. […] The stock solutions were prepared in dimethyl sulfoxide (DMSO, Sigma-Aldrich, St. Louis, MO, cat. D2650) at 800-fold the tested concentration and stored at -70 degrees C prior to their use. All drugs and investigational agents were tested over a range starting from a high concentration at or near the clinical Cmax and decreasing in half-log increments. If the clinical Cmax for an agent had not been determined, the highest concentration tested was 10 microM.
2.3 Cell Culture. All cells were maintained in an incubator at 37 degrees C and 5% CO2 with 95% humidity. The PDC lines were cultured according to standard operating procedures established by the NCI PDMR. All PDCs were thawed and cultured in Matrigel-coated flasks prepared with a working solution of 1X Ham's F-12 nutrient mix, without supplementation (Invitrogen, cat. 11765054), 100 U/mL penicillin-streptomycin (Invitrogen, cat. 15140122), and 2.5% Matrigel (Corning Inc., cat. 354248) for the first three passages. The 857933-349-R-J2-PDC line was cultured in 6C/Colon 1B media, which includes advanced DMEM/F-12 (Thermo Fisher Scientific, cat. 12634028), 10 mM HEPES (Thermo Fisher Scientific, cat. 15630080), 1X GlutaMAX supplement (Thermo Fisher Scientific, cat. 35050061), 0.1 mg/mL primocin (InvivoGen, cat. ant-pm-2), 10% defined fetal bovine serum, heat inactivated (HyClone Laboratories Inc., cat. SH30070.03HI), 50% L-WRN conditioned media (ATCC, cat. CRL-3276), 1.25 mM N-Acetyl-L-cysteine (Sigma-Aldrich, cat. A9165), 10 mM nicotinamide (Sigma-Aldrich, cat. N0636), 1X B-27 supplement (Thermo Fisher Scientific, cat. 17504044), 1X N-2 supplement (Thermo Fisher Scientific, cat. 17502048), 10 microM Y-27632 dihydrochloride (Tocris Bioscience, cat. 1254), and 50 ng/mL human EGF recombinant protein (Thermo Fisher Scientific, cat. PHG0311). The 485176-168-R4-J1-PDC line was cultured in Panc media, which includes all 6C/Colon 1B media components plus 100 ng/mL human FGF-10 (Thermo Fisher Scientific, cat. 100-26), 500 nM SB-431542 (Selleckchem, cat. S1067), and gastrin (Tocris, cat. 3006).
[…]
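Further: spheroids exposed to compounds for seven days.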
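Wherever viability, T/C is given: 100% = DMSO vehicle control viability.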

In the case of CCc1c2c(nc3ccc(O)cc13)-c1cc3c(c(=O)n1C2)COC(=O)[C@]3(O)CC, the viability, T/C (compound 0.000999 µM) is reported as 87% and 104% and 96.5%, the viability, T/C (compound 0.00316 µM) is reported as 71.4% and 69.9% and 67.3% and the viability, T/C (compound 0.00999 µM) is reported as 48% and 31.8% and 48.8%. The viability, T/C (compound 0.0316 µM) was 18.4% and 10.6% and 23.2%, the viability, T/C (compound 0.0999 µM) was 24.3% and 11.3% and 29.4% and the viability, T/C (compound 0.316 µM) was 24.9% and 13.8% and 31.8%. The IC50 (curve of compound) was 0.00801 µM and 0.00566 µM and 0.00743 µM.

COc1cc(C2c3cc4c(cc3C(OC3OC5COC(C)OC5C(O)C3O)C3COC(=O)C23)OCO4)cc(OC)c1O (centres undefined) + CN(C)c1ccc(Nc2c3ccc(NC(=O)CCN4CCCC4)cc3nc3cc(NC(=O)CCN4CCCC4)ccc23)cc1 gave an IC50 (curve of first compound, second compound 0.0316 µM) of over 10 µM, an IC50 (curve of first compound, second compound 0.1 µM) of 9.49 µM and an IC50 (curve of first compound, second compound 0.316 µM) of 9.2 µM. For the same molecule, the IC50 (curve of first compound, second compound 1 µM) was 8.94 µM, the IC50 (curve of first compound, second compound 3.16 µM) was over 10 µM and the IC50 (curve of first compound, second compound 10 µM) was over 10 µM. The viability, T/C (second compound 0.0316 µM, first compound 0.0316 µM) was 116%, the viability, T/C (second compound 0.0316 µM, first compound 0.1 µM) was 90% and the viability, T/C (second compound 0.0316 µM, first compound 0.316 µM) was 90.7%. For the same molecule, the viability, T/C (second compound 0.0316 µM, first compound 1 µM) was 88.1%, the viability, T/C (second compound 0.0316 µM, first compound 3.16 µM) was 72.5% and the viability, T/C (second compound 0.0316 µM, first compound 10 µM) was 58.3%. The viability, T/C (second compound 0.1 µM, first compound 0.0316 µM) was 109%, the viability, T/C (second compound 0.1 µM, first compound 0.1 µM) was 102% and the viability, T/C (second compound 0.1 µM, first compound 0.316 µM) was 91.3%. The viability, T/C (second compound 0.1 µM, first compound 1 µM) was 85.2%, the viability, T/C (second compound 0.1 µM, first compound 3.16 µM) was 81.1% and the viability, T/C (second compound 0.1 µM, first compound 10 µM) was 46.3%. It also gave a viability, T/C (second compound 0.316 µM, first compound 0.0316 µM) of 90.6%, a viability, T/C (second compound 0.316 µM, first compound 0.1 µM) of 101% and a viability, T/C (second compound 0.316 µM, first compound 0.316 µM) of 83.7%. The viability, T/C (second compound 0.316 µM, first compound 1 µM) was 79.5%, the viability, T/C (second compound 0.316 µM, first compound 3.16 µM) was 82.9% and the viability, T/C (second compound 0.316 µM, first compound 10 µM) was 46.9%. It also gave a viability, T/C (second compound 1 µM, first compound 0.0316 µM) of 79.7%, a viability, T/C (second compound 1 µM, first compound 0.1 µM) of 79.7% and a viability, T/C (second compound 1 µM, first compound 0.316 µM) of 105%. It also gave a viability, T/C (second compound 1 µM, first compound 1 µM) of 71.5%, a viability, T/C (second compound 1 µM, first compound 3.16 µM) of 95.8% and a viability, T/C (second compound 1 µM, first compound 10 µM) of 46.1%. It also gave a viability, T/C (second compound 3.16 µM, first compound 0.0316 µM) of 109%, a viability, T/C (second compound 3.16 µM, first compound 0.1 µM) of 99.3% and a viability, T/C (second compound 3.16 µM, first compound 0.316 µM) of 114%. It also gave a viability, T/C (second compound 3.16 µM, first compound 1 µM) of 98.5%, a viability, T/C (second compound 3.16 µM, first compound 3.16 µM) of 91.8% and a viability, T/C (second compound 3.16 µM, first compound 10 µM) of 58.3%. The viability, T/C (second compound 10 µM, first compound 0.0316 µM) was 94.4%, the viability, T/C (second compound 10 µM, first compound 0.1 µM) was 106% and the viability, T/C (second compound 10 µM, first compound 0.316 µM) was 111%. For the same molecule, the viability, T/C (second compound 10 µM, first compound 1 µM) was 79.3%, the viability, T/C (second compound 10 µM, first compound 3.16 µM) was 106% and the viability, T/C (second compound 10 µM, first compound 10 µM) was 70.5%.
